Laboratory results reported in ChEMBL document CHEMBL1154197, “Synthesis and biological evaluation of berberine analogues as novel up-regulators for both low-density-lipoprotein receptor and insulin receptor” (2009).
Calls of active or inactive are those of the source. The rule behind the calls is not given here.

Tests used:
HepG2 [1] = experiment: Upregulation of LDLR mRNA expression in human liver HepG2 at 10 ug/mL after 8 hrs by RT-PCR relative to control; assay type: functional
HepG2 [2] = experiment: Upregulation of InsR mRNA expression in human liver HepG2 at 10 ug/mL after 8 hrs by RT-PCR relative to control; assay type: functional
HepG2 [3] = experiment: Upregulation of LDLR […] expression in human liver HepG2 at 10 ug/mL after 12 hrs by flow cytometry; assay type: functional, cell-based
HepG2 [4] = experiment: Upregulation of InsR […] expression in human liver HepG2 at 10 ug/mL after 12 hrs by flow cytometry; assay type: functional, cell-based

Compound | fold change (FC) (HepG2 [1]) | fold change (FC) (HepG2 [2]) | Activity (HepG2 [3]) | Activity (HepG2 [4])
COc1cc2cc3[n+](cc2cc1OC)CCc1cc(OCc2ccccc2)ccc1-3.[Cl-] | 1 | 0.8 |  | 
COc1cc2c(c(OC)c1OC)-c1cc3ccc(OC)c(OC)c3c[n+]1CC2.[Cl-] | 1.1 | 1.2 |  | 
COc1ccc2cc3[n+](cc2c1OC)CCc1cc(O)ccc1-3.[Cl-] | 0.8 | 1.2 |  | 
COc1cc2c(cc1O)CC[n+]1cc3cc(OC)c(OC)cc3cc1-2.[Cl-] [DEHYDRODISCRETINE CHLORIDE] | 1 | 0.6 |  | 
COc1cc2cc3[n+](cc2cc1OC)CCc1cc2c(cc1-3)OCO2.[Cl-] [PSEUDOBERBERINE] | 3.1 | 1.2 |  | 
COc1cc2c(cc1O)CC[n+]1cc3cc(OC)c(OC)c(OC)c3cc1-2.[Cl-] | 1 | 1 |  | 
COc1cc2c(cc1OCc1ccccc1)-c1cc3ccc(OC)c(OC)c3c[n+]1CC2.[Cl-] | 1.5 | 1.7 |  | 
COc1c(O)ccc2cc3[n+](cc12)CCc1cc2c(cc1-3)OCO2.[Cl-] [THALIFENDINE] | 1.6 | 1.7 | Active | Active
COc1cc2c(cc1OC)-c1cc3cc(OC)c(OC)cc3c[n+]1CC2.[Cl-] | 1.1 | 1.1 |  | 
Oc1ccc2cc3[n+](cc2c1)CCc1cc2c(cc1-3)OCO2.[Cl-] | 1.9 | 1.4 |  | 
COc1cc2cc3[n+](cc2cc1OC)CCc1cc(OC)c(OC)c(OC)c1-3.[Cl-] | 1.1 | 0.8 |  | 
COc1cc2c(cc1O)-c1cc3cc(OC)c(OC)cc3c[n+]1CC2.[Cl-] | 1.1 | 0.8 |  | 
COc1cc2cc3[n+](cc2cc1OC)CCc1cc(O)ccc1-3.[Cl-] | 0.9 | 0.7 |  | 
COc1ccc2cc3[n+](cc2c1OC)CCc1cc2c(cc1-3)OCO2.[Cl-] [BERBERINE CHLORIDE] | 1.9 | 2.3 |  | 
COc1cc2c(cc1O)CC[n+]1cc3cc(O)ccc3cc1-2.[Cl-] | 1.4 | 1.2 |  | 
COc1ccc2cc3[n+](cc2c1OC)CCc1cc(OCc2ccccc2)ccc1-3.[Cl-] | 1.3 | 1.3 |  | 
COc1cc2c(cc1OC)-c1cc3ccc(O)cc3c[n+]1CC2.[Cl-] | 1 | 0.9 |  | 
